Experiments:
[1] = system: 8392B Nontarget Cell Line; assay: two hour toxicity: 2 hr exposure, concentration inhibiting 50% of DNA synthesis activity; type: cell-based; conditions: at 26,000 nM ([…] μM)
Method: (§1) In various embodiments of the invention, the MV522 cell line represents a “target” cell line. […] The two hour toxicity data represents the concentration of a given analog for which a two hour exposure will inhibit 50% of the DNA synthesis activity in a given cell line. The 48 hour exposure data represents the concentration at which a given analog with a 48 hour exposure will inhibit the growth or viability in a given cell line as defined by the standard Trypan Blue Exclusion assay.

[2] = system: c-myc positive daughter line Myc/Rat1A (Myc/ER); assay: role of c-myc in cytotoxicity, c-myc expression induced by 4-hydroxytamoxifen (4HOT); type: cell-based; conditions: FIG. 2
Text: The expression of c-myc in this cell line is under the control of a modified receptor that responds to 4-hydroxytamoxifen (4HOT).

[3] = system: MV522 cell line (a lung-derived adenocarcinoma cell line); assay: tumor regression (FIG. 1); type: in vivo; conditions: MV522, FIG. 1
[4] = system: XP-A, XP-B, XP-C, XP-D, XP-E, XP-F, CS-A, CS-B, ERCC1, ERCC5; assay: DNA damage profile by DNA repair gene; type: cell-based; conditions: symbols not defined
[5] = system: NIH3T3 MYC+ and NIH3T3 MYC-null; assay: influence of c-myc expression on cytotoxicity, Cell Count (%); conditions: for effect of c-myc (MYC) expression on cellular sensitivity: FIG. 4A-4D, cisplatin data not shown
[6] = system: Mechanism of Multi-drug Resistance; assay: multidrug resistance: resistance by mechanism of multi-drug resistance
[7] = system: NCI DTP 60 cell line panel; assay: NCI DTP 60 Cell Line screen: Growth Inhibition (GI50), Total Growth Inhibition (TGI), Lethal Concentration (LC50/LD); type: cell-based, human; conditions: mean over NCI DTP 60 cell line panel; for GI50: growth inhibition; for Mean LD50 cytotoxic: lethal concentration dose (cytotoxic effect); for Mean TGI cytostatic: total growth inhibition (cytostatic effect)
Method: In particular, an algorithm based on the obtained in vitro cell culture values (i.e. growth inhibition values (GI50), or the total growth inhibition (TGI), or the lethal concentration (LC50)) of cell lines (e.g., NCI60 cells) subjected to treatment with an illudofulvene, and gene expression is determined in these same cell lines (e.g., by microarray analysis, reverse transcriptase polymerase chain reaction (RT-PCR), quantitative real-time PCR (qPCR), or next generation sequencing). After normalization, genes with, e.g., a Pearson correlation coefficient greater than about 0.5 or below about −0.5 to one of the obtained in vitro cell culture values, can be classified as biomarkers of sensitivity or resistance, respectively. A probability or significance value can also be calculated for the correlation between the obtained in vitro cell culture values (i.e. growth inhibition values (GI50), or the total growth inhibition (TGI), or the lethal concentration (LC50)) and the normalized expression of a specific gene.
One can determine the growth inhibition (GI50), total growth inhibition (TGI), or lethal concentration (LC50) for a drug for each of the cell lines in the NCI DTP 60 cell line panel. One can use these 3 values to search for correlations against all gene expressions in all cell lines using the NCI's publicly available CELL MINER Software. Alternatively, one can down load for a specific gene its relative expression in each of the 60 cell lines using the NCI's publicly available COMPARE Software, and performs the expression for a specific gene.

MV522 Target Cell Line = assay: 48 hour exposure, growth or viability by Trypan Blue Exclusion assay; type: cell-based; conditions: MV522, 48 h, read-out: Mean IC50 value, MV522 Target Cell Line, 48 hr exposure
Method: as §1

MCF7 (ER positive) = assay: cytotoxic IC50, 2 hour exposure; conditions: Homo sapiens, MCF7, 2 h, read-out: cytotoxic IC50 values, MCF7 (ER positive)

Q: `CC1=C(CO)C2=C(C)C3(CC3)[C@@](C)(O)C(=O)C2=C1` [Analog 002] was tested. Which “inhibitory effect on the nontarget 8392B cell line” value [1] did it give?
A: no inhibitory effect

Q: And the “sensitivity on expression of c-myc in the presence of 4HOT” value [2]?
A: become sensitive

Q: What about the tumor regression [3] of the same compound?
A: induce tumor regression

Q: And the DNA damage profile ([4]; Gene XP-C)?
A: 0

Q: What about the DNA damage profile ([4]; Gene XP-E) of the same compound?
A: 0

Q: And the “Cytotoxicity? 2 hr incubation” value (Myeloid leukemias)?
A: Yes

Q: What about the “Cytotoxicity? 48 hr incubation” value (Myeloid leukemias) of the same compound?
A: Yes

Q: What about the “Cytotoxicity? 2 hr incubation” value (Breast carcinomas) of the same compound?
A: Yes

Q: What about the “Cytotoxicity? 48 hr incubation” value (Breast carcinomas) of the same compound?
A: Yes

Q: And the “Cytotoxicity? 2 hr incubation” value (Epidermoid)?
A: Yes

Q: What about the “Cytotoxicity? 48 hr incubation” value (Epidermoid) of the same compound?
A: Yes

Q: And the “Cytotoxicity? 2 hr incubation” value (Ovarian)?
A: Yes

Q: And the “Cytotoxicity? 48 hr incubation” value (Ovarian)?
A: Yes

Q: What about the “Cytotoxicity? 2 hr incubation” value (Lung carcinomas) of the same compound?
A: Yes

Q: And the “Cytotoxicity? 48 hr incubation” value (Lung carcinomas)?
A: Yes

Q: What about the “Cytotoxicity? 2 hr incubation” value (Prostate carcinomas) of the same compound?
A: Yes

Q: What about the “Cytotoxicity? 48 hr incubation” value (Prostate carcinomas) of the same compound?
A: Yes

Q: What about the “Cytotoxicity? 2 hr incubation” value (B cell leukemias) of the same compound?
A: No

Q: And the “Cytotoxicity? 48 hr incubation” value (B cell leukemias)?
A: Yes

Q: What about the “Cytotoxicity? 2 hr incubation” value (T cell leukemias) of the same compound?
A: No

Q: And the “Cytotoxicity? 48 hr incubation” value (T cell leukemias)?
A: Yes

Q: And the “Cytotoxicity? 2 hr incubation” value (Fibroblasts (normal))?
A: No

Q: And the “Cytotoxicity? 48 hr incubation” value (Fibroblasts (normal))?
A: Yes

Q: What about the “effect of c-myc (MYC) expression on cellular sensitivity” value [5] of the same compound?
A: become sensitive

Q: And the “increase in sensitivity conferred by expression of cellular c-myc” value ([5]; NIH3T3 MYC+ compared to parental c-myc null NIH3T3, based on decrease in cell count, FIG. 3)?
A: greater than 10 fold

Q: What about the “Resistance to Analog 001/Analog 002” value ([6]; Mechanism: BRCA status) of the same compound?
A: No

Q: What about the “Resistance to Analog 001/Analog 002” value ([6]; Mechanism: Bcl-2 expression) of the same compound?
A: No

Q: What about the “Resistance to Analog 001/Analog 002” value ([6]; Mechanism: DNA repair) of the same compound?
A: No

Q: And the “Resistance to Analog 001/Analog 002” value ([6]; Mechanism: Gp170/MDR1)?
A: No

Q: What about the “Resistance to Analog 001/Analog 002” value ([6]; Mechanism: Gp180/MRP) of the same compound?
A: No

Q: And the “Resistance to Analog 001/Analog 002” value ([6]; Mechanism: MGMT expression)?
A: No

Q: What about the “Resistance to Analog 001/Analog 002” value ([6]; Mechanism: MVP/LRP (vault)) of the same compound?
A: No

Q: What about the “Resistance to Analog 001/Analog 002” value ([6]; Mechanism: Microtubulin alteration) of the same compound?
A: No

Q: And the “Resistance to Analog 001/Analog 002” value ([6]; Mechanism: Myc expression)?
A: No

Q: What about the “Resistance to Analog 001/Analog 002” value ([6]; Mechanism: P21 status) of the same compound?
A: No

Q: What about the “Resistance to Analog 001/Analog 002” value ([6]; Mechanism: P53 status) of the same compound?
A: No

Q: And the “Resistance to Analog 001/Analog 002” value ([6]; Mechanism: Thiol content/GST pi)?
A: No

Q: What about the “Resistance to Analog 001/Analog 002” value ([6]; Mechanism: Topoisomerase I) of the same compound?
A: No

Q: What about the “Resistance to Analog 001/Analog 002” value ([6]; Mechanism: Topoisomerase II) of the same compound?
A: No

Q: And the “dependence of activity on common resistance mechanisms” value ([6]; multi-medicant resistance phenotype, Bcl-2 over expression, p53 and p21/WAF1 mutations)?
A: independent

Q: Which results are given for `COC(=O)C1=C(C(=O)OC)C23C=C(C)C1C2=C(C)C1(CC1)[C@@](C)(O)C3=O` (stereo partly shown) [Illudofulvene Analog 0142]?
A: GI50 [7]: 447 nM; Mean LD50 cytotoxic [7]: 53,700 nM; Mean TGI cytostatic [7]: 4,667 nM

Q: For `CC1=C2C(=CC(C)(C)[C@@H]2O)C(=O)[C@](C)(O)C12CC2` [Illudin M, illudin M, reference compound], which “Mean LD50 cytotoxic” value [7] is on record?
A: 291 nM

Q: Which GI50 [7] does the source give for `CCOCC1=C(C)C=C2C(=O)[C@](C)(O)C3(CC3)C(C)=C21` [Illudofulvene Analog 0016] here?
A: 102 nM

Q: And the “Mean LD50 cytotoxic” value [7]?
A: 4,270 nM

Q: And the “Mean TGI cytostatic” value [7]?
A: 1,070 nM

Q: Which results are given for `CO[C@@]12[C@H](COC(N)=O)C3=C(C(=O)C(C)=C(N)C3=O)N1C[C@@H]1N[C@@H]12` [mitomycin C]?
A: effect of c-myc (MYC) expression on cellular sensitivity [5]: did not alter cellular sensitivity; effect of c-myc (MYC) expression on cellular sensitivity ([5]; listed as Mitomycin C): not sensitive

Q: With `CC(=O)OCC1(C)C=C2C(=O)[C@](C)(O)C3(CC3)C(C)=C2C1O` (stereo partly shown) [Illudofulvene Analog 0159] as the compound, how does the GI50 [7] read?
A: 117 nM

Q: And the “Mean LD50 cytotoxic” value [7]?
A: 14,790 nM

Q: And the “Mean TGI cytostatic” value [7]?
A: 2,090 nM

Q: With `N.N.[Cl][Pt][Cl]` [cisplatin] as the compound, how does the “effect of c-myc (MYC) expression on cellular sensitivity” value [5] read?
A: did not alter cellular sensitivity

Q: For `CC[C@H](C)[C@H](NC(=O)[C@H]1CCCCN1C)C(=O)N(COC(=O)CC(C)C)[C@H](C[C@@H](OC(C)=O)c1nc(C(=O)N[C@@H](Cc2ccc(O)cc2)C[C@H](C)C(=O)O)cs1)C(C)C` [Tubulysin A], which “Mean LD50 cytotoxic” value [7] is on record?
A: >10,000 nM

Q: With `CC1=C(COCCO)C2=C(C)C3(CC3)[C@@](C)(O)C(=O)C2=C1` [Analog 022] as the compound, how does the IC50 (MV522 Target Cell Line) read?
A: 680 ± 180 nM

Q: Which results are given for `CC[C@@]1(O)C(=O)OCc2c1cc1n(c2=O)Cc2cc3c(CN(C)C)c(O)ccc3nc2-1` [topotecan]?
A: effect of c-myc (MYC) expression on cellular sensitivity [5]: did not alter cellular sensitivity; effect of c-myc (MYC) expression on cellular sensitivity ([5]; listed as Topotecan): not sensitive

Q: `CC1=C(CCC(=O)Oc2ccc3c(c2)CCC2C3CC[C@]3(C)C(O)CCC23)C2=C(C)C3(CC3)[C@@](C)(O)C(=O)C2=C1` (stereo partly shown) [Analog 108] was tested. Which IC50 (MCF7 (ER positive)) did it give?
A: 14100 ± 2800 nM

Reference: patent US11160807B1, “Methods, compositions and devices for treating cancer with illudofulvenes” (AF Chemicals, LLC, priority 2018, dated 2021)
